Experimental data taken from ChEMBL document CHEMBL5465560, “Selectivity Literature for EUbOPEN Chemogenomic Library” (2024).

What was measured:
[1] = molecular target: T1, Ephrin type-B receptor 2 (Homo sapiens) (UniProt P29323); conditions: at 10 µM
T1 sequence (whole entry): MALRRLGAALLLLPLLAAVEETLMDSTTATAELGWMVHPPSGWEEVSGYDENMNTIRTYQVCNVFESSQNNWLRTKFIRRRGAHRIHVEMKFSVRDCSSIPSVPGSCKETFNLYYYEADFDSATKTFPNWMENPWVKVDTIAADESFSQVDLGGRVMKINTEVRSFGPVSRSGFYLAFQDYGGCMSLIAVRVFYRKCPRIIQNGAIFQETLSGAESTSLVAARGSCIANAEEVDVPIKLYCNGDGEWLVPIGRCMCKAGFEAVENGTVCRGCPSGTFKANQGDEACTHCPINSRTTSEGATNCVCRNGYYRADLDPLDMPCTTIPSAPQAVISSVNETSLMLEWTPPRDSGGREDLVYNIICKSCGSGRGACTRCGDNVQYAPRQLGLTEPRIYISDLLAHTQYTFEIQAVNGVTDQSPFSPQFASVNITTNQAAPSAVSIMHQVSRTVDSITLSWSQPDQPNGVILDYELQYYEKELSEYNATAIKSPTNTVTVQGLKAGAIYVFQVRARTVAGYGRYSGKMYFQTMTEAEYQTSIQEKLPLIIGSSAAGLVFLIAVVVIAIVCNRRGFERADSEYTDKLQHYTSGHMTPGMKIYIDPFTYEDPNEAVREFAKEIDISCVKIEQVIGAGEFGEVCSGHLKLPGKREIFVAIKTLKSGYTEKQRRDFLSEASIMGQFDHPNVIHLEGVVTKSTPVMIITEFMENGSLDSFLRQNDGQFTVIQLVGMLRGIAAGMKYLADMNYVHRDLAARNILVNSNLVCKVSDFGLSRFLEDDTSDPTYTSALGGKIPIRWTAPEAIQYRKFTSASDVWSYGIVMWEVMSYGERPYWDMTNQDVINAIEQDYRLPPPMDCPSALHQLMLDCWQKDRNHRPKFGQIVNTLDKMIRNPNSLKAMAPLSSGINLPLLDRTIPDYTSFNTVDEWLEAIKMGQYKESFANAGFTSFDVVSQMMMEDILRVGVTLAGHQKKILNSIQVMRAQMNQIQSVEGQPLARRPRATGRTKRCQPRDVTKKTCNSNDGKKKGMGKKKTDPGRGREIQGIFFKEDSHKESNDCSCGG

[2] = molecular target: T2, Serine/threonine-protein kinase D2 (Homo sapiens) (UniProt Q9BZL6); assay: Selectivity interaction (Kinase panel (Invitrogen)) EUB0000639a PRKD2; conditions: at 200 nM
T2 sequence (whole entry): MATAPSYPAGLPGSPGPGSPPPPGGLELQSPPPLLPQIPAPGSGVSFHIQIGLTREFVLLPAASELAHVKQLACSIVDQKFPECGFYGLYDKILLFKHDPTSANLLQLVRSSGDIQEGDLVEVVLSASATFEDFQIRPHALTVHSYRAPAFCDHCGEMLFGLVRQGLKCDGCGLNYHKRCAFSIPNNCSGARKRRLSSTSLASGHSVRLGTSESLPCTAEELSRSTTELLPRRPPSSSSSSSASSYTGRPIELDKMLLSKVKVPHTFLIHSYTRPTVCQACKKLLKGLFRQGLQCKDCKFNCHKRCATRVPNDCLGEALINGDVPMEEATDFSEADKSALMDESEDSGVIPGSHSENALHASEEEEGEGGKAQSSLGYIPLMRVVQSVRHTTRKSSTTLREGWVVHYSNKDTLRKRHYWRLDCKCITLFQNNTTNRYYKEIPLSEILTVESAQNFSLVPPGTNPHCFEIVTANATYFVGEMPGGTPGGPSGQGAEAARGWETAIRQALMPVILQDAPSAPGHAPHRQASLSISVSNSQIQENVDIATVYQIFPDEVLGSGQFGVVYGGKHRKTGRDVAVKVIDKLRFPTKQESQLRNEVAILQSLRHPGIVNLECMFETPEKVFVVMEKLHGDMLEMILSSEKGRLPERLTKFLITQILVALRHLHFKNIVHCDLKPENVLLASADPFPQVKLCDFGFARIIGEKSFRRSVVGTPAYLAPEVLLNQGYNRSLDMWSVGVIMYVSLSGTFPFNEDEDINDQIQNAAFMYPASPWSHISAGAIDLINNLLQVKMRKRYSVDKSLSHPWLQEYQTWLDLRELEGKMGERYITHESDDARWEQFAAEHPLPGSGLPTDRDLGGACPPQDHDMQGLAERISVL

[3] = molecular target: T3, Ephrin type-B receptor 4 (Homo sapiens) (UniProt P54760); assay: Selectivity interaction (SelectScreen profiling (Invitrogen)) EUB0000607a EPHB4; conditions: at 2 µM
T3 sequence (whole entry): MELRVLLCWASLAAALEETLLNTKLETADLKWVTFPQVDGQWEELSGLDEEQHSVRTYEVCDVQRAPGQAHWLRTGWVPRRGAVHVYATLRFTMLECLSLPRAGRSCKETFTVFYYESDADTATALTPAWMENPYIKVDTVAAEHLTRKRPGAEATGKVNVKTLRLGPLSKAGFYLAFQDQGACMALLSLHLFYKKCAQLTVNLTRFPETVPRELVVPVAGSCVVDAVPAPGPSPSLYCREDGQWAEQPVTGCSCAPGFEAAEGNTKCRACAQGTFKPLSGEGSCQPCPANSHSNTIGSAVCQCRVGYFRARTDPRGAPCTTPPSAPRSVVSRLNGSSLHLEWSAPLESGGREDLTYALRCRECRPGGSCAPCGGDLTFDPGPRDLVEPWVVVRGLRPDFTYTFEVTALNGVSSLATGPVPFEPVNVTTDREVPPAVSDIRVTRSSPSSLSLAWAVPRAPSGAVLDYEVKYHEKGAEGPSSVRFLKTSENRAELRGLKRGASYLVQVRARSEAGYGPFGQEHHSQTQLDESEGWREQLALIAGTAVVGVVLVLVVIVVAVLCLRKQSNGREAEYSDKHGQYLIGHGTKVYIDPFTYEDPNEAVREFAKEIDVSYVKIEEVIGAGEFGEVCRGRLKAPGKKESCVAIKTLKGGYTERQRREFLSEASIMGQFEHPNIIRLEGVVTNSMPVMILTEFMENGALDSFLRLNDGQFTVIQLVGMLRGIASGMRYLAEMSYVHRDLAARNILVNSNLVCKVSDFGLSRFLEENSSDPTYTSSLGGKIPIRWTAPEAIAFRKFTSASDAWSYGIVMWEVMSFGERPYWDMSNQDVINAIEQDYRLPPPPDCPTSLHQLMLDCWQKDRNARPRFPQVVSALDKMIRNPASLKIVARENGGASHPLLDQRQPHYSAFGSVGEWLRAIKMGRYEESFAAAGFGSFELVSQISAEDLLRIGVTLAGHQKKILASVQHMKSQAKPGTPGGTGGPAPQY

[4] = molecular target: Serine/threonine-protein kinase MARK2 (Homo sapiens) (UniProt Q7KZI7); assay: Selectivity interaction (ActivX KiNativ screen (ex vivo kinase selectivity in human PBMCs)) EUB0001619a MARK2; type: cell-based; conditions: PBMC, at 1 µM
Chain of Serine/threonine-protein kinase MARK2 (Homo sapiens) (Q7KZI7 whole entry): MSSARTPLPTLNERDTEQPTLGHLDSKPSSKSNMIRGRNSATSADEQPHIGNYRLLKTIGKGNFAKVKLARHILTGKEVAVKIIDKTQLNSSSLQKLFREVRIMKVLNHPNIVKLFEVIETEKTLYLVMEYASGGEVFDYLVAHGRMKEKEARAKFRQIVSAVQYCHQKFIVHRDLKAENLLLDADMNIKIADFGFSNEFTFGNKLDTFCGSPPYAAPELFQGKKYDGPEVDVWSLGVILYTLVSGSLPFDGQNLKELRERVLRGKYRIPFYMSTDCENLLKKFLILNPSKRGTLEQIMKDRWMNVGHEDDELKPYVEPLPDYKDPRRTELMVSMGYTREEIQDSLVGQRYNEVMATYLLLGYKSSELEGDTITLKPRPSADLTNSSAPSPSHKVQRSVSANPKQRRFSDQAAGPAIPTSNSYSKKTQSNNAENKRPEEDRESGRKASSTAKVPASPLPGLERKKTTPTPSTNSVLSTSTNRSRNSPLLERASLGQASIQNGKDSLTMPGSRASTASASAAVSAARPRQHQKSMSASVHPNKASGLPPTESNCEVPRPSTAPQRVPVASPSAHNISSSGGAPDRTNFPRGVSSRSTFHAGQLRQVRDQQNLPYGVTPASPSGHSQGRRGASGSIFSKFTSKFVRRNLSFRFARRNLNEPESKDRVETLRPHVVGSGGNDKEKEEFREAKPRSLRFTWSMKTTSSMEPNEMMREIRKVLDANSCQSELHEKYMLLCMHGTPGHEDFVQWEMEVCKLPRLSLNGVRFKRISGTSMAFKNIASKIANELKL

With Cc1cc([C@@H](C)Nc2ccccc2C(=O)O)c2nc(N3CCOCC3)cc(=O)n2c1 [AZD-6482] the % of control [1] was 100%.
CC[C@@H]1[C@H](F)C(=O)N[C@@H]1COc1nccc2cc(C(N)=O)c(OC)cc12 [ZIMLOVISERTIB] was tested, and the % of inhibition [2] was 5.6%.
CNC(=O)Nc1ccc(-c2nc(N3CC4CCC(C3)O4)c3cnn(C4CCC5(CC4)OCCO5)c3n2)cc1 gave a % of inhibition [3] of -4%.
N#Cc1cccc(-c2c[nH]c3ncnc(N4CCOCC4)c23)c1 was tested, and the % of inhibition [4] was 27%.
